Source: patent US12274706B2 (MEDAC GESELLSCHAFT FUER KLINISCHE SPEZIALPRAEPARATE MBH, priority 2017, dated 2025)
≈ marks a conversion by molar mass, not a printed value. Where “and” joins values, the source holds several entries; their conditions need not be identical. Equal entries are not always repeated. Where two headings read alike, the source gives them in different places.

Legend:
[1] = cited from earlier work
Water vapor uptake (GVS) = format: physicochemical
[2] = Solubility of sulfasalazine, Form A meglumine salt and pharmaceutical compositions (HPLC); format: physicochemical
Description: The mobile phase consists of mobile phase (A): 1.13 g sodium dihydrogen phosphate and 2.5 g sodium acetate are dissolved in 1000 mL purified water. The pH is afterwards adjusted with acetic acid (100%) to 4.8. and mobile phase (B): 1 part mobile phase A is mixed with 4 parts of methanol for chromatography. The flow rate was 1.0 mL/min, injection volume 5 μL and detection wavelengths 320 nm (HP DAD series 1100). Run time is 10 min. Quantitation was performed using external standard methodology. The assay method has been validated with respect to selectivity, repeatability and linearity. Samples are prepared with dilute ammonia R3 PhEur.
The saturated solutions were filtrated using centrifuge filters (Nylon, […]) and the clear supernatants were respectively injected either directly or after dilution with dilute ammonia R3 PhEur.
The resulting solution is further diluted with phosphate buffer (pH 6.8) to 1% v/v solution prior. The resulting phosphate buffer solution is diluted with dilute ammonia R3 prior to injection.

[3] = tested on: binding of TNF-alpha to its receptor; conditions: 125I-TNF-alpha displacement; cited from earlier work
in vitro = conditions: human, Caco-2
physchem = conditions: de-ionized water, 24 °C
[4] = cited from earlier work; remark: listed apart in the source

Compound: Nc1ccc(S(=O)(=O)Nc2ccccn2)cc1 [sulfapyridine]
- systemic bioavailability ([1]; metabolite formed from non-absorbed sulfasalazine by gut flora): about 60%

Compound: CNCC(O)C(O)C(O)C(O)CO.O=C(O)c1cc(N=Nc2ccc(S(=O)(=O)Nc3ccccn3)cc2)ccc1O [Form A meglumine salt, D(−)-N-methylglucamine 2-hydroxy-5-[2-[4-[(2-pyridinylamino)sulfonyl]phenyl]diazenyl]-benzoate, crystal Form A]
- solubility in de-ionized water at 24° C. and pH 6.6: > 54 mg/mL
- water vapor uptake (GVS; % w/w) at 30% RH (Water vapor uptake (GVS); listed as 4.1): < 0.4 % w/w
- water vapor uptake (GVS; % w/w) at 30% RH (Water vapor uptake (GVS); listed as 4.2): 0.4 % w/w
- water vapor uptake (GVS; % w/w) at 80% RH (Water vapor uptake (GVS)): 1.1 % w/w
- water vapor uptake (GVS; % w/w) at 80% RH (Water vapor uptake (GVS); listed as 4.1): < 0.9 % w/w
- Solubility (mg/mL) FaSSIF-V2 ([2]; FaSSIF-V2 medium, room temperature (20-25° C.), saturated solution): 15.3 mg/mL
- Solubility (mg/mL) Water ([2]; water, diluted in phosphate Buffer pH 6.8): 60.3 mg/mL
- Solubility (mg/mL) Water ([2]; water, room temperature): 104.8 mg/mL

Compound: CCNCC.O=C(O)c1cc(N=Nc2ccc(S(=O)(=O)Nc3ccccn3)cc2)ccc1O [Form A diethylamine salt, diethylamine 2-hydroxy-5-[2-[4-[(2-pyridinylamino)sulfonyl]phenyl]diazenyl]-benzoate, crystal Form A]
- water vapor uptake (GVS; % w/w) at 30% RH (Water vapor uptake (GVS)): 0.3 % w/w
- water vapor uptake (GVS; % w/w) at 80% RH (Water vapor uptake (GVS)): 0.5 % w/w

Compound: C1CNCCN1.O=C(O)c1cc(N=Nc2ccc(S(=O)(=O)Nc3ccccn3)cc2)ccc1O [Form A piperazine salt, piperazine 2-hydroxy-5-[2-[4-[(2-pyridinylamino)sulfonyl]phenyl]diazenyl]-benzoate, crystal Form A]
- water vapor uptake (GVS; % w/w) at 30% RH (Water vapor uptake (GVS)): 0.4 % w/w
- water vapor uptake (GVS; % w/w) at 80% RH (Water vapor uptake (GVS)): 0.9 % w/w

Compound: O=C(O)c1cc(N=Nc2ccc(S(=O)(=O)Nc3ccccn3)cc2)ccc1O [sulfasalazine, 2-hydroxy-5-[2-[4-[(2-pyridinylamino)sulfonyl]phenyl]diazenyl]-benzoic acid]
- binding of TNF-alpha to its receptor [3]: inhibits
- half-life ([1]; intravenously administered): approximately 7.6±3.6 hours
- median peak concentration (time) ([1]; man, oral): 6 h
- Papp A→B at 180 min, 200 μg/mL (in vitro): 1.16 ×10⁻⁶ cm/s
- Papp A→B at 180 min, 2000 μg/mL (in vitro): 0.81 ×10⁻⁶ cm/s
- Papp B→A at 180 min, 200 μg/mL (in vitro): 4.76 ×10⁻⁶ cm/s
- Papp B→A at 180 min, 2000 μg/mL (in vitro): 2.79 ×10⁻⁶ cm/s
- solubility (physchem): 60 µg/mL (≈ 151 µM)
- solubility in de-ionized water at 24° C. ([4]; 24° C., literature value): 0.03 mg/mL and 0.031 mg/mL
- solubility class according to United States Pharmacopoeia (practically insoluble) ([4]; USP classification): < 0.1 mg/mL
- solubility in water ([4]; water): less than 5 mg/100 ml
- solubility at 24 h ([2]; pH 5.9, thermodynamic from solid, water, room temperature, read-out: Solubility (mg/mL) Water): 0.06 mg/mL
- solubility at 24 h ([2]; pH 6.3, thermodynamic from solid, FaSSIF-V2 medium, room temperature (20-25° C.), saturated solution, read-out: Solubility (mg/mL) FaSSIF-V2): 0.78 mg/mL
